Experimental data from article PMC7936271, “Discovery and characterization of bromodomain 2–specific inhibitors of BRDT” (Proceedings of the National Academy of Sciences of the …, 2021).
pIC50, pKd: −log10 of the molar value. “And” between values parts separate entries of the source, which are not always exact repeats. Identical values can stand only once. “Also recorded” adds a separate entry of the source. Like-named read-outs stand apart in the source and are kept apart here.

Legend:
BRDT-BD2 [1] = target: BRDT-BD2
BRDT-BD1 [2] = target: BRDT-BD1
BRD4-BD2 [3] = target: BRD4-BD2
BRD4-BD1 [4] = target: BRD4-BD1
BRDT-BD1 [5] = target: T1, BRDT-BD1 (Homo sapiens, UniProt Q58F21); assay: AlphaScreen competition assay with biotinylated JQ1, BRDT-BD1; format: binding; conditions: for inhibition at 10 µM: read-out: Inhibition at 10 µM for BRDT-BD1
T1 construct: NP_001717.3 amino acid 21− 137; made in house; host or cells: E. coli NiCo21 (DE3)

BRD4-BD1 [6] = target: T2, BRD4-BD1 (Homo sapiens, UniProt O60885); assay: AlphaScreen competition assay with biotinylated JQ1, BRD4-BD1; format: binding
T2 construct: amino acid 44− 168; made in house; host or cells: E. coli NiCo21 (DE3)

[7] = Metabolic stability assay in mouse liver microsomes; format: in vitro ADME; conditions: for half-life at 2 μM / t1/2, min MLM: mouse liver microsomes, 37 °C, data >60 min are an extrapolated estimate, 2.0 μM; for half-life at 2 μM: read-out: t1/2, min MLM; for mouse microsomal stability: result in words
Procedure: (§1) 2d) Metabolic stability assay in liver microsomes. […]
(§2) The reactions are terminated by adding equivalent
(§3) volume of ice-cold CH3OH and vortexed.
(§4) temperature was ma i ntained at 40 °C.
(§5) (acetonitrile containing 0.1% formic acid). […]

[8] = Metabolic stability assay in human liver microsomes; format: in vitro ADME; conditions: for half-life at 2 μM / t1/2, min HLM: human liver microsomes, 37 °C, data >60 min are an extrapolated estimate, 2.0 μM; for half-life at 2 μM: read-out: t1/2, min HLM; for human microsomal stability: result in words
Procedure: as §1, §2, §3, §4, §5

BRD4-BD2 [9] = target: T3, BRD4-BD2 (Homo sapiens, UniProt O60885); assay: AlphaScreen competition assay with biotinylated JQ1, BRD4-BD2; format: binding; parameters: BD2, NP_055114.1 amino acid 333− 460; made in house; host or cells: E. coli NiCo21 (DE3)
BRDT-BD2 [10] = target: T4, BRDT-BD2 (Homo sapiens, UniProt Q58F21); assay: AlphaScreen competition assay with biotinylated JQ1, BRDT-BD2; format: binding; parameters: BRDT-BD2, NP_001717.3 amino acid 269− 380; made in house; host or cells: E. coli NiCo21 (DE3); conditions: for BRDT-BD2 activity / affinity: result in words
various bromodomains = assay: BROMOscan bromodomain profiling on various bromodomains; format: binding; conditions: result in words
Procedure: 2a) Bromodomain proximity assay. The AlphaScreenTM assay was performed following previous […]
The plate was read on a Tecan Infinite […]
the protein thermal shift assay.
Orange dye at 5 × in a 10- µL reaction.
Lightcycler 480 real-time PCR instrument.
2c) NanoBRET target engagement intracellular BET bromodomain assay. The NanoLuc -BRDT-BD1 […]
(Promega, USA) to replace the corresponding BRD4 bromodomain sequences. The NanoBRET tracer […]
The cells were then preincubated with tested
2d) Metabolic stability assay in liver microsomes. Compounds 3–10, 15, 17 and 20–2 2 (2.0 μM) were incubated in the mouse or human liver microsomes (0.5 mg protein/mL) at 37 °C. The samples are collected […]
The reactions are terminated by adding equivalent volume of ice-cold CH3OH and vortexed. […]
as §4
(acetonitrile containing 0.1% formic acid).
2e) BROMOscan bromodomain profiling. BROMOscan bromodomain profiling was provided by […]
against a proprietary reference immobilized ligand.

BRD2-BD2 [11] = target: BRD2-BD2
BRD3-BD2 [12] = target: BRD3-BD2
BRD4-BD2 [13] = target: BRD4-BD2; remark: listed apart in the source
BRDT-BD2 [14] = target: BRDT-BD2; remark: listed apart in the source
BRD2-BD2 [15] = target: T5, BRD2-BD2 (Homo sapiens, UniProt P25440); assay: BROMOscan BromoKdELECT competition binding, BRD2-BD2; conditions: BromoKdELECT dose-response; read-out: Binding Constants (Kd), nM BRD2-BD2
T5 construct: purchased Eurofins DiscoverX Corp

BRD3-BD2 [16] = target: T6, BRD3-BD2 (Homo sapiens, UniProt Q15059); assay: BROMOscan BromoKdELECT competition binding, BRD3-BD2; conditions: BromoKdELECT dose-response; read-out: Binding Constants (Kd), nM BRD3-BD2
T6 construct: purchased Eurofins DiscoverX Corp

BRD4-BD2 [17] = target: T3, BRD4-BD2; assay: BROMOscan BromoKdELECT competition binding, BRD4-BD2; parameters: purchased Eurofins DiscoverX Corp; conditions: BromoKdELECT dose-response; read-out: Binding Constants (Kd), nM BRD4-BD2
BRDT-BD2 [18] = target: T4, BRDT-BD2; assay: BROMOscan BromoKdELECT competition binding, BRDT-BD2; parameters: purchased Eurofins DiscoverX Corp
[19] = ratio of AlphaScreen IC50 values
[20] = AlphaScreen, biotinylated JQ1 as ligand, NE: no effect at 20 µM
[21] = AlphaScreen, biotinylated JQ1 as ligand

T5 sequence (P25440 344-453 limits assumed): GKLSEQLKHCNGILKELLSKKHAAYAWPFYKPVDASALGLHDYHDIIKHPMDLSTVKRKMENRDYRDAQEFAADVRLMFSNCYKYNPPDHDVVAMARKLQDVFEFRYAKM
T6 sequence (Q15059 306-415 limits assumed): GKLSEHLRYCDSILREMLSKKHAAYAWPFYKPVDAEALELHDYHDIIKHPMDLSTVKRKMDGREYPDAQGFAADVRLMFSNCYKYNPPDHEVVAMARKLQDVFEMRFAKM

SMILES | pIC50 (BRDT-BD2 [1]) | pIC50 (BRDT-BD1 [2]) | pIC50 (BRD4-BD2 [3]) | pIC50 (BRD4-BD1 [4]) | IC50 (BRD4-BD1 [6]) | half-life at 2 μM [7] | mouse microsomal stability [7] | half-life at 2 μM [8] | IC50 (BRD4-BD2 [9]) | BRD4-BD2 vs. BRD4-BD1 (BRD4-BD2 selectivity) (BRD4-BD2 [9]; [19]) | IC50 (BRDT-BD2 [10]) | BRDT-BD2 activity / affinity (BRDT-BD2 [10]; AlphaScreen) | BRDT-BD2 vs. BRD4-BD2 (BRDT-BD2 [10]; [19]) | IC50 (BRDT-BD1 [5]; [20]) | IC50 (BRD4-BD1 [6]; [20]) | t1/2, min MLM [7] | t1/2, min HLM [8] | BRD4-BD2 vs. BRD4-BD1 (BRD4-BD2 selectivity) (BRD4-BD2 [9]) | IC50 (BRD4-BD2 [9]; [21]) | IC50 (BRDT-BD2 [10]; [21]) | other results
CNC(=O)c1cc(NC(=O)c2ccc3c(c2)c(-c2ccc(N)cc2C)nn3C)ccc1C [Compound 22] | 7.74 | < 5.00 and 4.97 | 7.70 | 4.96 | 10900 nM | 2.5 h | high mouse microsomal stability | 7.67 h | 20 nM | 540 | 18 nM | minimal effects on potency | 1.1 |  |  |  |  |  |  |  | IC50 (BRDT-BD1 [5]): 10700 nM; BRDT-BD2 vs. BRDT-BD1 (BRDT-BD2 selectivity) (BRDT-BD2 [10]; [19]): 590
CNC(=O)c1ccc(C(=O)Nc2cc(NC(=O)c3ccc4c(c3)c(-c3cc5ccccc5n3C)nn4C)ccc2C)cc1 [Compound 8] | 7.89 | < 5.00 | 7.51 | 4.58 | 26200 nM | 0.85 h |  | 2.5 h | 31 nM | 850 | 13 nM | low nanomolar affinity | 2.4 |  |  |  |  |  |  |  | % inhibition at 10 µM (BRDT-BD1 [2]): 11%; IC50 (BRDT-BD1 [5]): > 10000 nM; inhibition at 10 µM (BRDT-BD1 [5]): 11%; BRDT-BD2 vs. BRDT-BD1 (BRDT-BD2 selectivity) (BRDT-BD2 [10]; [19]): >750
CNC(=O)c1ccc(C(=O)Nc2cc(NC(=O)c3ccc4c(c3)c(-c3cnc(N)cc3C)nn4C)ccc2C)cc1 [Compound 15] | 7.66 |  | 6.85 |  |  |  | high mouse microsomal stability |  |  |  |  | lower affinity than compound 10 |  | > 20000 nM | > 20000 nM | 2.5 h | 3.67 h | >140 | 140 nM | 22 nM | BRDT-BD2 vs. BRD4-BD2 (BRDT-BD2 [10]; ratio of AlphaScreen IC50 values, listed as 15 (CDD-1349)): 6.4; BRDT-BD2 vs. BRD4-BD2 (BRDT-BD2 [10]; ratio of AlphaScreen IC50 values, listed as CDD-1349): sixfold
CNC(=O)c1ccc(C(=O)Nc2cc(NC(=O)c3ccc4c(c3)c(-c3ccc(N)cc3C)nn4C)ccc2C)cc1 [Compound 9] |  |  |  |  |  | 1.53 h | greater stability in mouse liver microsomes (MLMs) over other hits | 2.5 h |  |  |  |  |  |  |  |  |  |  |  |  | human microsomal stability [8]: high metabolic stability; BROMOscan bromodomain profile (various bromodomains): very weak binding to two bromodomains outside of the BET subfamily
CNC(=O)c1ccc(C(=O)Nc2cc(NC(=O)c3ccc4c(c3)c(-c3ccc(N)nc3)nn4C)ccc2C)cc1 [Compound 10] | 7.77 | < 5.00 | 7.34 | < 5.00 | > 10000 nM | 3.17 h | high metabolic stability; also recorded: high mouse microsomal stability | 4 h | 46 nM | >210 | 17 nM | slightly lower affinity than CDD-1102 | 2.7 |  |  |  |  |  |  |  | % inhibition at 10 µM (BRDT-BD1 [2]): 16%; % inhibition at 10 µM (BRD4-BD1 [4]): 20%; inhibition at 10 µM (BRDT-BD1 [5]): 16%; inhibition at 10 µM (BRD4-BD1 [6]; read-out: Inhibition at 10 µM for BRD4-BD1): 20%; human microsomal stability [8]: high metabolic stability; BRDT-BD2 vs. BRDT-BD1 (BRDT-BD2 selectivity) (BRDT-BD2 [10]; [19]): >600
CC(=O)Nc1cc(NC(=O)c2ccc3c(c2)c(-c2ccc(N)cc2C)nn3C)ccc1C [Compound 20] | 8.10 | < 5.00 and 4.80 | 7.92 | 4.98 |  |  |  |  |  |  |  | no loss in activity | 1.5 | 15800 nM | 10400 nM | 1.2 h | 6.17 h | 860 | 12 nM | 8 nM | pKd (BRD2-BD2 [11]): 8.11; pKd (BRD3-BD2 [12]): 8.70; pKd (BRD4-BD2 [13]): 8.80; pKd (BRDT-BD2 [14]): 8.89; Kd (BRD2-BD2 [15]): 7.8 nM; Kd (BRD3-BD2 [16]): 2 nM; BROMOscan bromodomain profile (various bromodomains): potent and selective binding to only the second bromodomains within the BET subfamily; Kd (BRD4-BD2 [17]): 1.6 nM; more potent than JQ1 at binding BRDT-BD2 (BRDT-BD2 [18]; BromoKdELECT dose-response curves): more than 20 fold; Kd (BRDT-BD2 [18]; BromoKdELECT dose-response, read-out: Binding Constants (Kd), nM BRDT-BD2): 1.3 nM; BRDT-BD2 vs. BRDT-BD1 (BRDT-BD2 selectivity) (BRDT-BD2 [10]): 2,000
CC(=O)Nc1cccc(NC(=O)c2ccc3c(c2)c(-c2ccc(N)cc2C)nn3C)c1 [Compound 21] | 7.85 | < 5.00 and 4.71 | 7.68 | 4.85 |  |  |  |  |  |  |  | minimal effects on potency | 1.5 | 19700 nM | 14100 nM | 0.15 h | 3 h | 670 | 21 nM | 14 nM | BRDT-BD2 vs. BRDT-BD1 (BRDT-BD2 selectivity) (BRDT-BD2 [10]): 1,400
COc1ccc(NC(=O)c2ccc3nn(C)c(-c4ccc(N)cc4C)c3c2)cc1 [Compound 27] | 4.76 | < 5.00 |  |  |  |  |  |  |  |  |  | dramatic loss of activity; also recorded: inactivity |  |  |  |  |  |  |  |  | 
CC(=O)Nc1cc(NC(=O)c2ccc3c(c2)c(-c2ccc(N)nc2)nn3C)ccc1C [Compound 17] | 7.33 | < 5.00 and 4.44 | 7.29 | 4.60 |  |  | high mouse microsomal stability |  |  |  |  |  | 1.1 | 36200 nM | 25100 nM | 3.33 h | 8.17 h | 490 | 51 nM | 47 nM | BRDT-BD2 vs. BRDT-BD1 (BRDT-BD2 selectivity) (BRDT-BD2 [10]): 770
